Measured values reported in paper doi:10.1101/2025.03.03.641193, “Trihydroxybenzaldoximes are redox cycling inhibitors of ThDP-dependent DXP synthase” (bioRxiv, 2025).
Entries after “also recorded” stand apart in the source; their conditions may differ.

How the values were obtained:
[1] = NMR detection of redox state of 1; format: physicochemical
Procedure: NMR experiments were performed as previously described[16],[24] with the following modifications. Experiments were performed aerobically unless otherwise noted. Anaerobic experiments were performed in the anaerobic chamber up to the point of transfer to NMR tubes which were capped with rubber septa to exclude oxygen once removed from the chamber. […] Solutions were also prepared aerobically in the presence of ascorbate (5 mM) and CAT (0.25 mg/mL). Oxime 1 (500 μM) was then added and solutions were incubated at 4 °C for 20 min. After incubation, 600 μL of each solution were transferred to labeled NMR tubes. 1D ^1H-NMR and 1D ^1H detected H{^13C} and H3{^13C} spectra via a proton multiplicity filter, which selects for ^13C nuclei attached to an odd number of protons, were acquired on a Bruker Avance 600 MHz or a Bruker Avance NEO 600 MHz spectrometer (HEPES anaerobic and Tris anaerobic) equipped with a TCI cryogenic probe equipped with z-gradients with a cryo-cooled ^13C preamplifier, resulting in high sensitivity for ^13C detection. Spectra were acquired at 600 MHz (^1H) and 150 MHz (^13C), at 25 °C utilizing a 90° ^1H excitation pulse (optimized for maximum signal-to-noise per unit time), 128 scans/FID (^1H-NMR), 200 ms acquisition time/FID, and a 3s relaxation day between successive scans, or 64 scans/FID (^1H detected H{^13C} and H3{^13C}), 200 ms acquisition time/FID, and a 5s relaxation day between successive scans.

[2] = target: T1, DrDXPS (Deinococcus radiodurans, UniProt Q9RUB5); assay: DXPS-IspC coupled assay, DrDXPS; format: biochemical, Deinoccocus radiodurans
T1 construct: made in house
Procedure: (§1) Inhibitory activity of compounds against DXPS were monitored via a continuous spectrophotometric coupled assay with DXPS and IspC as previously described.[41],[42] Briefly, Reaction mixtures containing HEPES (100 mM, pH 8.0), MgCl2 (2 mM), NaCl (5 mM), ThDP (1 mM), BSA (1 mg/mL), DXPS (125–500 nM), IspC (1.7 μM), NADPH (160 μM), DMSO (5%, v/v), and inhibitor (0–200 μM) were preincubated at 25 °C (or chamber temperature 25–30 °C) for 5 min. Enzymatic reactions were initiated via the addition of 20 μL of a 10x substrate mix for a final well volume of 200 μL. Reactions were performed in triplicate unless otherwise noted. See the following sections for details and modifications.
(§2) When varying pyruvate (0–500 μM), GAP was maintained at 50 μM (3 mM for R478A). When varying GAP (0–500 μM), pyruvate was maintained at 500 μM. The following [DXPS] were used when varying 1: WT EcDXPS, R478A, H431A, D427A (200 nM), R99A (500 nM), WT DrDXPS, WT PaDXPS (150 nM). Analogs 3 and 4 were tested using WT EcDXPS (150 nM). Reactions were incubated and initiated as described above. Immediately following initiation, NADPH depletion was monitored at 340 nm at 25 °C for 7–10 min with a 14–20 second time interval. Initial velocities of DXP formation were determined from the linear portion of the NADPH decay. Initial velocities were arithmetically corrected for background for compound 4. Initial velocities were plotted vs. substrate concentration, and the data were fit to equation 1 (mixed model), 2 (competitive), or 3 (uncompetitive) based on the calculated α value and goodness of fit in GraphPad Prism. Reported standard errors of the mean for Kis are calculated from three replicates.

[3] = target: T2, alcohol dehydrogenase (ADH) (Equus caballus, UniProt P00327); assay: Inhibition of ADH; format: biochemical; conditions: up to 200 μM, MES pH 6.2
T2 construct: purchased Sigma Aldrich 55689
Procedure: Reaction mixtures containing MES (100 mM, pH 6.2), MgCl2 (2 mM), ThDP (5 mM), ADH (16 U/mL), NADH (170 μM), and 1 (0 or 200 μM) were preincubated at 25 °C for 5 min. Enzymatic reactions were initiated via the addition of 20 μL of 10x acetaldehyde (final 1mM), or water for background controls, for a final well volume of 200 μL. Immediately following initiation, NADH depletion was monitored at 340 nm at 25 °C for 6 min with a 11 second time interval. Initial velocities of ethanol formation were measured as above and arithmetically corrected for background rates. Reported standard errors of the mean for Kis are calculated from three replicates.

[4] = target: T3, pyruvate decarboxylase (PDC) (Saccharomyces cerevisiae, UniProt P06169); assay: Inhibition of PDC (ADH coupled assay); format: biochemical, S. cerevisiae
T3 construct: purchased Sigma Aldrich P9474; host or cells: baker's yeast
Procedure: Reaction conditions were optimized from a previously reported assay.[38] Briefly, reaction mixtures containing MES (100 mM, pH 6.2), MgCl2 (2 mM), ThDP (5 mM), PDC (0.06 U/mL), ADH (16 U/mL), NADH (170 μM), and 1 (0 or 200 μM) were preincubated at 25 °C for 5 min. Enzymatic reactions were initiated via the addition of 20 μL of 10x pyruvate (final 1mM), or water for background controls, for a final well volume of 200 μL. Immediately following initiation, NADH depletion was monitored at 340 nm at 25 °C for 7 min with a 14 second time interval. Initial velocities of acetaldehyde formation were measured and arithmetically corrected for background rates. Standard errors of reported % inhibition values were determined from 3 replicates. pH controls were conducted with phosphate buffer (pH 7 and 8); background subtraction was not performed on these samples. Reported standard errors of the mean for Kis are calculated from three replicates.

[5] = target: T4, R478A DXPS (Escherichia coli, UniProt P77488, R478A); assay: DXPS-IspC coupled assay, R478A variant; format: biochemical, E. coli
T4 construct: made in house
Procedure: In this experiment, pyruvate was varied from 12.5–500 μM and D-GAP was maintained at 2x Km.. […] Thus, it appears that EcR478A is not absolutely critical for binding 1.
as §1, §2

Structure (SMILES): ON=Cc1cc(O)c(O)cc1O [compound 1, 2,4,5-trihydroxybenzaldoxime]
- redox state by 1H-NMR ([1]; 500 μM, HEPES 50 mM pH 8, aerobic): partially
- redox state by 1H-NMR ([1]; 500 μM, HEPES pH 8, aerobic, ascorbate 5 mM): reduced
- redox state by 1H-NMR ([1]; 500 μM, HEPES pH 8, aerobic, catalase 0.25 mg/mL): mostly oxidized
- redox state by 1H-NMR ([1]; 500 μM, Tris 50 mM pH 8, aerobic): mostly
- redox state by 1H-NMR ([1]; 500 μM, acidic pH (MES pH 6.2), aerobic): mostly reduced
- redox state by 1H-NMR ([1]; 500 μM, neutral and basic pH (phosphate pH 7, CHES pH 9), aerobic): oxidized
- redox state by 1H-NMR ([1]; 12.5 mM, HEPES 100 mM pH 8, aerobic): primarily in the reduced state
- redox state by 1H-NMR ([1]; anaerobic conditions): primarily in its reduced form
- Ki [2]: 2.8 ± 0.2 µM
- MOI varying D-GAP ([2]; DrDXPS): competitive
- MOI varying pyruvate ([2]; DrDXPS): uncompetitive
- Ki relative to EcDXPS ([2]; DrDXPS, varying either pyruvate or D-GAP): ≤ 2 fold
- Inhibition of ADH [3]: did not inhibit; also recorded: not inhibited
- Inhibition of PDC at pH 7 or 8 ([4]; 200 μM, phosphate buffer pH 7 and 8): not observed
- %Inhibition at 200 μM 1 ([4]; PDC, MES pH 6.2, 200 μM): ~ 14%
- inhibition at 200 µM ([4]; pH 6.2, PDC, MES pH 6.2, 200 μM, read-out: %Inhibition at 200 μM 1): 14.2 ± 2.3%
- Ki [5]: 15.7 ± 0.4 µM
- MOI varying pyruvate ([5]; EcR478A): uncompetitive
- Ki/Ki^wt ([5]; R478A, vary pyruvate, fold reduction in potency vs WT): ~ 3
